Among the data in ChEMBL document CHEMBL1907987, “Human UDP-glucuronosyltransferases: metabolism, expression, and disease” (Annu Rev Pharmacol Toxicol, 2000) are Activity values, retold here.

The target of data set [1] is T1, UDP-glucuronosyltransferase 2B7 (Homo sapiens, UniProt P16662).
T1 sequence (P16662 whole entry): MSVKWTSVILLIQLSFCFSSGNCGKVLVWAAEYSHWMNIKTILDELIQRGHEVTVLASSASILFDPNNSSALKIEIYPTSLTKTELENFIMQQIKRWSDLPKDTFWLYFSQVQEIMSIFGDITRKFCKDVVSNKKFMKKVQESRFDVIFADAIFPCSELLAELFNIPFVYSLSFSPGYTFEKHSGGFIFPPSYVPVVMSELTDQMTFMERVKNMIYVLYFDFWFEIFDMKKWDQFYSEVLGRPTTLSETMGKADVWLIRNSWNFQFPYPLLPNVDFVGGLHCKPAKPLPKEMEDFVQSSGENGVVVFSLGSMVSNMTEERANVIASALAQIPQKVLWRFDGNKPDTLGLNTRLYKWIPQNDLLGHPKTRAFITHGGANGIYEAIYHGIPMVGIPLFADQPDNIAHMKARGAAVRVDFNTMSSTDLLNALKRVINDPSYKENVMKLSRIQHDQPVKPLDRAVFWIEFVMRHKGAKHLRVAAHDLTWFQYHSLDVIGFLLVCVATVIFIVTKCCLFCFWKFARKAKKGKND
Nature of the data set: Specific activity of expressed human recombinant UGT2B7Y. The format is ADME. The settings on record: recombinant enzyme.

The target in data set [2] is T1, UDP-glucuronosyltransferase 2B7. Nature of the data set: Specific activity of expressed human recombinant UGT2B7H. The format is ADME. To be noted: recombinant enzyme.

Molecules are shown by their SMILES. Values joined by “and” are separate entries in the source; they are usually repeats but may differ in a detail not shown here. Equal values may be shown once.

For `Oc1ccc2c3c1O[C@H]1c4oc5ccccc5c4C[C@@]4(O)[C@@H](C2)N(CC2CC2)CC[C@]314` [NALTRIBEN], the Activity in data set [1] was 150 pm/min/mg and 97 pm/min/mg; in data set [2], 0 pm/min/mg.

As to `Oc1ccc2c3c1O[C@H]1[C@@H](O)C=C[C@H]4[C@@H](C2)NCC[C@@]341` [NORMORPHINE], in data set [1], the Activity was 80 pm/min/mg.

Consider `O=C1CC[C@@]2(O)[C@H]3Cc4ccc(O)c5c4[C@@]2(CCN3CC2CC2)[C@H]1O5` [NALTREXONE], for which, in data set [2], the Activity was 670 pm/min/mg and 662 pm/min/mg.

For `CO[C@]12CC[C@@]3(C[C@@H]1[C@](C)(O)C(C)(C)C)[C@H]1Cc4ccc(O)c5c4[C@@]3(CCN1CC1CC1)[C@H]2O5` [BUPRENORPHINE], in data set [2], the Activity is 478 pm/min/mg and 280 pm/min/mg.

Take `C=CCN1CC[C@]23c4c5ccc(O)c4O[C@H]2C(=O)CC[C@@]3(O)[C@H]1C5` [NALOXONE]: the Activity in data set [2] is 2908 pm/min/mg and 3462 pm/min/mg.

Regarding `Oc1ccc2c3c1O[C@H]1c4[nH]c5ccccc5c4C[C@@]4(O)[C@@H](C2)N(CC2CC2)CC[C@]314` [NALTRINDOLE], the Activity was 453 pm/min/mg in data set [1]; 349 pm/min/mg and 456 pm/min/mg in data set [2].

On to `C[C@]12CC[C@H]3[C@@H](CCC4=CC(=O)CC[C@@]43C)[C@@H]1CC[C@@H]2O` (stereo in doubt; form 2) [TESTOSTERONE], for which the Activity in data set [1] and in data set [2] was 0 pm/min/mg in each case.

As for `CN1CC[C@]23c4c5ccc(O)c4O[C@H]2C(=O)CC[C@H]3[C@H]1C5` (stereo in doubt; form 1) [HYDROMORPHONE], the Activity was 530 pm/min/mg in data set [1]; 617 pm/min/mg and 856 pm/min/mg in data set [2].

As for `CN1CC[C@]23c4c5ccc(O)c4O[C@H]2[C@@H](O)C=C[C@H]3[C@H]1C5` (stereo in doubt; (+)) [MORPHINE], in data set [1], the Activity is recorded as 160 pm/min/mg.

With `CN1CC[C@]23c4c5ccc(O)c4O[C@H]2C(=O)CC[C@H]3[C@H]1C5` (stereo in doubt; form 2) [HYDROMORPHONE], the Activity in data set [1] was found to be 1550 pm/min/mg.

As for `C[C@]12CC[C@@H](O)C[C@@H]1CC[C@@H]1[C@@H]2CC[C@]2(C)C(=O)CC[C@@H]12` (stereo in doubt; form 1) [ANDROSTERONE], the Activity stood at 94 pm/min/mg in data set [1] and 114 pm/min/mg in data set [2].

As to `CN1CC[C@]23c4c5ccc(O)c4O[C@H]2[C@@H](O)C=C[C@H]3[C@H]1C5` (stereo in doubt; (-)) [MORPHINE], the Activity in data set [1] was 3719 pm/min/mg; in data set [2], 2536 pm/min/mg and 2968 pm/min/mg.

With `COc1ccc2c3c1O[C@H]1[C@@H](O)C=C[C@H]4[C@@H](C2)N(C)CC[C@@]341` [CODEINE], the Activity in data set [2] was 80 pm/min/mg and 54 pm/min/mg.

`CN1CC[C@]23CCCC[C@H]2[C@H]1Cc1ccc(O)cc13` [LEVORPHANOL]: the Activity in data set [1] is 33 pm/min/mg and 25 pm/min/mg.

With `C=CCN1CC[C@]23c4c5ccc(O)c4O[C@H]2[C@@H](O)C=C[C@H]3[C@H]1C5` [NALORPHINE], the Activity in data set [2] is 1483 pm/min/mg and 1051 pm/min/mg.

Take `CN1CC[C@]23c4c5ccc(O)c4O[C@H]2C(=O)CC[C@@]3(O)[C@H]1C5` [OXYMORPHONE]: the Activity is 2300 pm/min/mg in data set [1]; 2944 pm/min/mg and 3139 pm/min/mg in data set [2].

Turning to `COc1ccc2c3c1O[C@H]1[C@@H](O)C=C[C@H]4[C@@H](C2)NCC[C@@]341` [NORCODEINE], the Activity in data set [1] was 29 pm/min/mg and 24 pm/min/mg.

On to `Oc1ccc2c3c1O[C@H]1[C@@H](O)CC[C@@]4(O)[C@@H](C2)N(CC2CCC2)CC[C@]314` [NALBUPHINE], for which the Activity in data set [1] was 1100 pm/min/mg; in data set [2] it was 758 pm/min/mg and 862 pm/min/mg.

With `CC1CC[C@H](C(C)C)[C@@H](O)C1` (stereo partly drawn) [(+)-MENTHOL], the Activity was 247 pm/min/mg and 147 pm/min/mg in data set [1]; 255 pm/min/mg and 191 pm/min/mg in data set [2].

With `C[C@]12CC[C@H]3[C@@H](CCC4=CC(=O)CC[C@@]43C)[C@@H]1CC[C@H]2O` [EPITESTOSTERONE], the Activity in data set [1] is 468 pm/min/mg and 240 pm/min/mg; in data set [2] it was 360 pm/min/mg.

As to `C=C1CC[C@@]2(O)[C@H]3Cc4ccc(O)c5c4[C@@]2(CCN3CC2CC2)[C@H]1O5`, the Activity in data set [1] was 625 pm/min/mg; in data set [2], 380 pm/min/mg and 412 pm/min/mg.

For `CC1(C)[C@H]2CC[C@]1(C)[C@H](O)C2` [(-)-BORNEOL], the Activity in data set [1] was 357 pm/min/mg and 174 pm/min/mg; in data set [2], 388 pm/min/mg and 227 pm/min/mg.
